# According to the supplement of paper PMC6045584:
# ± gives the standard deviation of the averaged measurements.
# Experiments:
# SOTRASTAURIN/AEB071 = compound: CN1CCN(c2nc(C3=C(c4c[nH]c5ccccc45)C(=O)NC3=O)c3ccccc3n2)CC1 [SOTRASTAURIN/AEB071]; test: surviving fraction relative to DMSO-only wells; higher = less growth inhibition; settings: exposure time: 5 days
# Procedure, shortened: (§1)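 Log-phase tumour cell lines, 250–500 cells per well in 384-well plates, received inhibitors at 0.5, 1, 5, 10, 50, 100, 500 and 1000 nM continuously for five days, starting 24 hours after seeding. Viability was quantified with CellTiter-Glo luminescence and normalised to the median of DMSO-only wells to give surviving fraction. Three screens were run per line, and a line stayed in only with replicate Pearson r >0.7 and median Z' >0.3.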
# XAV-939 = compound: Oc1nc(-c2ccc(C(F)(F)F)cc2)nc2c1CSCC2 [XAV-939]; test: as above; settings: exposure time: 5 days
# Procedure, shortened: as §1
Test System,surviving fraction (SOTRASTAURIN/AEB071; 0.5 nM),surviving fraction (SOTRASTAURIN/AEB071; 1 nM),surviving fraction (SOTRASTAURIN/AEB071; 5 nM),surviving fraction (SOTRASTAURIN/AEB071; 10 nM),surviving fraction (SOTRASTAURIN/AEB071; 50 nM),surviving fraction (SOTRASTAURIN/AEB071; 100 nM),surviving fraction (SOTRASTAURIN/AEB071; 500 nM),surviving fraction (SOTRASTAURIN/AEB071; 1000 nM),surviving fraction (XAV-939; 0.5 nM),surviving fraction (XAV-939; 1 nM),surviving fraction (XAV-939; 5 nM),surviving fraction (XAV-939; 10 nM),surviving fraction (XAV-939; 50 nM),surviving fraction (XAV-939; 100 nM),surviving fraction (XAV-939; 500 nM),surviving fraction (XAV-939; 1000 nM)
SCC47 HEADNECK,1.04 ± 0.046,1.12 ± 0.12,1.16 ± 0.062,1.13 ± 0.14,1.06 ± 0.07,1.08 ± 0.046,1 ± 0.031,1.05 ± 0.13,0.987 ± 0.14,1.14 ± 0.058,1.08 ± 0.036,1.16 ± 0.027,1.07 ± 0.047,1.11 ± 0.082,0.962 ± 0.05,0.966 ± 0.093
MG63 BONE,1.02 ± 0.053,1.05 ± 0.047,1.06 ± 0.049,1.09 ± 0.027,1.07 ± 0.04,1.03 ± 0.065,1.02 ± 0.042,0.937 ± 0.029,0.98 ± 0.028,1.03 ± 0.034,1.025 ± 0.0083,1.09 ± 0.018,0.947 ± 0.034,0.923 ± 0.03,0.7 ± 0.0078,0.723 ± 0.021
CAL72 BONE,1.1 ± 0.021,1.09 ± 0.029,1.05 ± 0.029,1.08 ± 0.014,1.05 ± 0.04,1.08 ± 0.072,1.06 ± 0.044,1.1 ± 0.015,1.07 ± 0.023,1.05 ± 0.013,0.999 ± 0.015,0.976 ± 0.023,0.944 ± 0.012,0.957 ± 0.029,0.916 ± 0.038,0.9 ± 0.025
CME SYNOVIAL,1.28 ± 0.26,1.3 ± 0.18,1.31 ± 0.13,1.38 ± 0.22,0.978 ± 0.13,1.21 ± 0.2,1.14 ± 0.059,1.12 ± 0.059,1.27 ± 0.24,1.2 ± 0.093,1.25 ± 0.16,1.3 ± 0.093,1.29 ± 0.14,1.3 ± 0.071,1.1 ± 0.03,0.952 ± 0.094
93VU HEADNECK,1.03 ± 0.011,1.01 ± 0.036,1.07 ± 0.1,0.9817 ± 0.005,0.919 ± 0.067,0.887 ± 0.039,0.757 ± 0.055,0.789 ± 0.048,0.98 ± 0.073,1.06 ± 0.071,1.11 ± 0.091,1.07 ± 0.077,1.15 ± 0.095,1.17 ± 0.066,1.05 ± 0.089,0.907 ± 0.035
143B BONE,1.067 ± 0.0071,1.08 ± 0.037,1.14 ± 0.14,1.04 ± 0.014,1.09 ± 0.037,1.14 ± 0.11,1.12 ± 0.096,1.09 ± 0.063,0.977 ± 0.026,1.02 ± 0.012,0.952 ± 0.14,1.02 ± 0.042,0.911 ± 0.15,1.03 ± 0.044,0.922 ± 0.069,1.02 ± 0.023
SUM149 BREAST,0.923 ± 0.17,0.901 ± 0.054,0.892 ± 0.11,0.896 ± 0.088,0.932 ± 0.1,0.851 ± 0.025,0.893 ± 0.062,0.882 ± 0.031,1.02 ± 0.094,0.987 ± 0.05,0.971 ± 0.067,0.942 ± 0.034,0.854 ± 0.095,0.691 ± 0.037,0.432 ± 0.0091,0.328 ± 0.022
SCC90 HEADNECK,1.05 ± 0.063,0.997 ± 0.066,0.925 ± 0.099,1.01 ± 0.1,0.87 ± 0.037,0.875 ± 0.028,0.708 ± 0.033,0.676 ± 0.072,1.01 ± 0.1,1.11 ± 0.18,1.08 ± 0.077,1.13 ± 0.071,1.05 ± 0.03,1.05 ± 0.084,0.894 ± 0.032,0.918 ± 0.07
S68 BREAST,1.01 ± 0.3,1.06 ± 0.074,1.04 ± 0.15,1.53 ± 0.22,0.832 ± 0.079,0.909 ± 0.13,0.891 ± 0.12,1.08 ± 0.26,0.722 ± 0.22,0.763 ± 0.12,1.14 ± 0.25,0.983 ± 0.32,1.19 ± 0.13,1.12 ± 0.22,0.829 ± 0.05,0.767 ± 0.076
U2OS BONE,1.04 ± 0.058,1.008 ± 0.0065,1.11 ± 0.037,1.044 ± 0.0091,1.03 ± 0.051,1.02 ± 0.045,0.939 ± 0.027,0.929 ± 0.029,1.02 ± 0.028,1.04 ± 0.012,1.07 ± 0.032,1.06 ± 0.038,1.06 ± 0.014,1.04 ± 0.018,0.921 ± 0.02,0.8627 ± 0.0081
MCF7 BREAST,0.925 ± 0.066,0.917 ± 0.043,0.945 ± 0.052,0.935 ± 0.036,0.941 ± 0.036,0.941 ± 0.068,0.941 ± 0.053,0.966 ± 0.017,0.941 ± 0.062,0.953 ± 0.07,0.954 ± 0.033,0.937 ± 0.023,1.01 ± 0.069,1.05 ± 0.041,1.03 ± 0.054,1.01 ± 0.061
SUM44 BREAST,1.03 ± 0.23,1.04 ± 0.21,1.13 ± 0.2,1.03 ± 0.19,0.895 ± 0.057,0.962 ± 0.054,1.02 ± 0.1,1.03 ± 0.092,1.02 ± 0.059,1.05 ± 0.051,1.05 ± 0.02,1.06 ± 0.044,1.08 ± 0.045,1.1 ± 0.025,1.07 ± 0.023,1.12 ± 0.06
SIHA CERVIX,0.988 ± 0.039,1 ± 0.12,1.12 ± 0.041,1.06 ± 0.1,0.935 ± 0.055,0.989 ± 0.0056,0.944 ± 0.048,0.849 ± 0.05,1.02 ± 0.045,1.05 ± 0.067,1.05 ± 0.084,1.16 ± 0.13,1.1 ± 0.044,1.19 ± 0.025,1 ± 0.063,0.974 ± 0.046
VCAP PROSTATE,1.08 ± 0.18,1.01 ± 0.11,1.08 ± 0.06,1.03 ± 0.096,0.883 ± 0.1,1.1 ± 0.052,0.941 ± 0.085,0.931 ± 0.13,0.963 ± 0.12,0.958 ± 0.077,1.08 ± 0.092,0.973 ± 0.089,0.957 ± 0.083,0.903 ± 0.088,0.848 ± 0.13,0.84 ± 0.024
HUO3N1 BONE,1 ± 0.051,1.04 ± 0.075,1.08 ± 0.025,1.08 ± 0.054,1.001 ± 0.01,1.02 ± 0.025,0.897 ± 0.024,0.883 ± 0.017,1.03 ± 0.037,1.07 ± 0.12,1.04 ± 0.032,1.06 ± 0.048,1.09 ± 0.064,1.08 ± 0.034,0.761 ± 0.043,0.759 ± 0.0095
YAMATO SYNOVIAL,1.14 ± 0.068,1.23 ± 0.018,1.28 ± 0.13,1.38 ± 0.11,0.962 ± 0.096,0.968 ± 0.032,0.945 ± 0.024,0.96 ± 0.059,1.28 ± 0.22,1.22 ± 0.057,1.26 ± 0.095,1.34 ± 0.18,1.3 ± 0.049,1.24 ± 0.053,1 ± 0.095,1.09 ± 0.037
ASKA SYNOVIAL,1.14 ± 0.086,1.1 ± 0.074,1.18 ± 0.057,1.2 ± 0.097,1.03 ± 0.073,1.02 ± 0.028,0.998 ± 0.068,0.995 ± 0.077,1.15 ± 0.11,1.17 ± 0.098,1.18 ± 0.028,1.23 ± 0.13,1.2 ± 0.073,1.14 ± 0.065,0.98 ± 0.068,0.984 ± 0.023
MDAMB436 BREAST,0.976 ± 0.12,0.96 ± 0.057,0.932 ± 0.14,0.992 ± 0.13,0.943 ± 0.043,0.816 ± 0.052,0.955 ± 0.073,0.952 ± 0.056,0.957 ± 0.092,0.911 ± 0.088,0.923 ± 0.013,0.968 ± 0.079,0.959 ± 0.075,0.958 ± 0.081,0.856 ± 0.049,0.82 ± 0.011
H23 LUNG,1.03 ± 0.015,1.09 ± 0.046,1.07 ± 0.045,1.03 ± 0.016,1.1 ± 0.076,1.11 ± 0.092,1.14 ± 0.037,1.116 ± 0.011,0.953 ± 0.035,1.03 ± 0.062,1.04 ± 0.071,1.08 ± 0.075,1.01 ± 0.037,0.992 ± 0.02,0.391 ± 0.041,0.318 ± 0.024
COLO320DM LARGE INTESTINE,1.09 ± 0.06,1.05 ± 0.14,1 ± 0.046,1.08 ± 0.12,1.01 ± 0.084,1.07 ± 0.047,0.994 ± 0.056,1.05 ± 0.059,1.1 ± 0.051,1.14 ± 0.069,1.08 ± 0.15,0.997 ± 0.11,1.08 ± 0.013,0.994 ± 0.075,0.827 ± 0.071,0.805 ± 0.088
